Results reported in ChEMBL document CHEMBL5584307, “Discovery of a Potent and Orally Bioavailable Xanthine Oxidase/Urate Transporter 1 Dual Inhibitor as a Potential Treatment for Hyperuricemia and Gout” (J Med Chem, 2024).

Experiments:
[1] = biological target: T1, Solute carrier family 22 member 12 (Homo sapiens, UniProt Q96S37); test: Inhibition of URAT1 (unknown origin) by absorbance based assay
T1 sequence (Q96S37 whole entry): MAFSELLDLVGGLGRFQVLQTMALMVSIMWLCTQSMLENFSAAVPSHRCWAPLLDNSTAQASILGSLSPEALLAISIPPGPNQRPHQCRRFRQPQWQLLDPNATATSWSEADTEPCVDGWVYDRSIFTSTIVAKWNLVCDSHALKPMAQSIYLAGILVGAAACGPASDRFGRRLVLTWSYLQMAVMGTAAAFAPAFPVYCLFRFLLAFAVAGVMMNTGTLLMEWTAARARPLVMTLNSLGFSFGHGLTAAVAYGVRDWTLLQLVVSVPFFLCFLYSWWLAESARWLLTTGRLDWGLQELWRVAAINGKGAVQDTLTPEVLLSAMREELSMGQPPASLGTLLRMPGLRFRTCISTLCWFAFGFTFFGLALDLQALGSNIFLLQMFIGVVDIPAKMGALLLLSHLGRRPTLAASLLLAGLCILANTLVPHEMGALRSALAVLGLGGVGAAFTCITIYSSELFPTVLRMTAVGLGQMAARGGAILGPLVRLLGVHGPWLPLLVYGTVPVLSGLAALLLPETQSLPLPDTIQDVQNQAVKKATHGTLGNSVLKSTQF

[2] = biological target: T2, Xanthine dehydrogenase/oxidase (Homo sapiens, UniProt P47989); test: Inhibition of xanthine oxidase (unknown origin) by absorbance based assay
[3] = Oral bioavailability in overnight-fasted Sprague-Dawley rat at 5 mg/kg measured upto 24 hrs by LC-MS/MS analysis; assay type: ADME, organism-based; conditions: in vivo
[4] = AUC (last) in overnight-fasted Sprague-Dawley rat at 5 mg/kg, po measured upto 24 hrs by LC-MS/MS analysis; assay type: ADME, organism-based; conditions: in vivo
[5] = AUC (last) in overnight-fasted Sprague-Dawley rat at 1 mg/kg, iv measured upto 24 hrs by LC-MS/MS analysis; assay type: ADME, organism-based; conditions: in vivo
[6] = Clearance in overnight-fasted Sprague-Dawley rat at 1 mg/kg, iv measured upto 24 hrs by LC-MS/MS analysis; assay type: ADME, organism-based; conditions: in vivo
[7] = Volume of distribution at steady state in overnight-fasted Sprague-Dawley rat at 5 mg/kg, po or 1 mg/kg, iv measured upto 24 hrs by LC-MS/MS analysis; assay type: ADME, organism-based; conditions: in vivo
[8] = Cmax in overnight-fasted Sprague-Dawley rat at 5 mg/kg, po measured upto 24 hrs by LC-MS/MS analysis; assay type: ADME, organism-based; conditions: in vivo
[9] = Half life in overnight-fasted Sprague-Dawley rat at 5 mg/kg, po measured upto 24 hrs by LC-MS/MS analysis; assay type: ADME, organism-based; conditions: in vivo
[10] = test system: Sapajus apella; test: Urate lowering effect in Tufted capuchin monkey assessed as serum xanthine level at 2 mg/kg/day, po qd for 3 days consecutively; assay type: functional; conditions: time 3 day
[11] = test system: Sapajus apella; conditions: dose 2.0 mg/kg/day, route po, time 3.0 day
[12] = biological target: T1, Solute carrier family 22 member 12; test: Inhibition of URAT1 (unknown origin) at 10 uM by absorbance based assay
[13] = test system: Sapajus apella; test: Urate lowering effect in Tufted capuchin monkey assessed as urine xanthine level at 2 mg/kg/day, po qd for 3 days consecutively; assay type: functional; conditions: time 3 day
[14] = test system: Sapajus apella; conditions: dose 30.0 mg/kg/day, route po, time 3.0 day
[15] = biological target: T2, Xanthine dehydrogenase/oxidase; test: Inhibition of xanthine oxidase (unknown origin) at 10 uM by absorbance based assay
[16] = test system: Sapajus apella; test: Urate lowering effect in Tufted capuchin monkey assessed as fraction excretion of uric acid at 30 mg/kg/day, po qd for 3 days consecutively relative to control; assay type: functional; conditions: time 3 day

T2 sequence (P47989 whole entry): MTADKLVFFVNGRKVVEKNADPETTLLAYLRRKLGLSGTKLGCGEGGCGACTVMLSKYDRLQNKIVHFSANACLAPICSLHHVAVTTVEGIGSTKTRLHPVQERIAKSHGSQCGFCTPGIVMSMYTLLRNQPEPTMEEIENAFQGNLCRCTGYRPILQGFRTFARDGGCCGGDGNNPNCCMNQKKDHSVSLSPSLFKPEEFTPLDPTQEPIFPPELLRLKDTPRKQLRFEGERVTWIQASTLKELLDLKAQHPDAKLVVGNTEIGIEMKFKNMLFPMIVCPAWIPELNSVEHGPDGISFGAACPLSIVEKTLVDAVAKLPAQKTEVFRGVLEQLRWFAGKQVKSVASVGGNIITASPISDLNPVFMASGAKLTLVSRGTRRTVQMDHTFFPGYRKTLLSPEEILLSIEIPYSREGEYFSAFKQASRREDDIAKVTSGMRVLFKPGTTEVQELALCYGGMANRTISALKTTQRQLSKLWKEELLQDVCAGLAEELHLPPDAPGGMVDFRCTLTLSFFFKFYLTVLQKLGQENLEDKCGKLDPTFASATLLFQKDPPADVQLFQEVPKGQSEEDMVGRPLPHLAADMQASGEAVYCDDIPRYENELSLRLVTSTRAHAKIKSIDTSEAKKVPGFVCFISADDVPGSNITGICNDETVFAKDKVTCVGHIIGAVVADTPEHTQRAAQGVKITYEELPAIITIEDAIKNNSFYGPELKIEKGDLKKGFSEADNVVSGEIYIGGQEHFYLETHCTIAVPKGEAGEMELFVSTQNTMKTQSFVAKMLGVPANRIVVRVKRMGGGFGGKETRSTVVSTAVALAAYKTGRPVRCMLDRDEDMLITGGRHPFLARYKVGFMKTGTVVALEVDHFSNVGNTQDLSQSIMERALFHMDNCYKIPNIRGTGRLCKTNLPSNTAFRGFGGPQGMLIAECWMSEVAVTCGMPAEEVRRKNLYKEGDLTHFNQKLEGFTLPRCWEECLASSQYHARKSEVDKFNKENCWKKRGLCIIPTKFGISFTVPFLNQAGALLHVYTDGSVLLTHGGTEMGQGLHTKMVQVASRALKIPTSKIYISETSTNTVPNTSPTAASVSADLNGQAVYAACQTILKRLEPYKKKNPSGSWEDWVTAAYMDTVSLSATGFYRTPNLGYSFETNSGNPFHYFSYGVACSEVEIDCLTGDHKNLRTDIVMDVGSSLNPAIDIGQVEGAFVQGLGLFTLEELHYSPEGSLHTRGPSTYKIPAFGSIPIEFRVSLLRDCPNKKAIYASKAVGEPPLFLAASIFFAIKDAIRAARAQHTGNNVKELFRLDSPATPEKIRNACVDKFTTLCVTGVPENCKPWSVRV

SMILES: CC(C)COc1ccc(-c2ccc(C(=O)O)c(O)c2)cc1C#N
- IC50 [1]: 8.3 µM
- IC50 [2]: 0.018 µM

SMILES: N#Cc1cc(-c2ccc(C(=O)O)c(O)c2)c2occ(C(F)(F)F)c2c1
- IC50 [1]: 1.65 µM
- IC50 [2]: 0.008 µM

SMILES: N#Cc1cc(-c2ccc(C(=O)O)c(O)c2)c2ccsc2c1
- bioavailability [3]: 55.8%
- AUC(0-t) at 24 h [4]: 2.43 µg·h/mL
- AUC(0-t) at 24 h [5]: 0.902 µg·h/mL
- clearance [6]: 1.12 L/h/kg
- Vdss [7]: 0.4 L/kg
- Cmax [8]: 2.05 µg/mL
- half-life [9]: 1.86 h

SMILES: N#Cc1cccc(-c2ccc(C(=O)O)c(O)c2)c1
- IC50 [1]: 2.2 µM
- IC50 [2]: 0.037 µM

SMILES: N#Cc1cc(-c2ccc(C(=O)O)cc2)c2occc2c1
- IC50 [1]: 0.598 µM
- IC50 [2]: 0.591 µM

SMILES: N#Cc1cc(-c2ccc(C(=O)O)c(O)c2)c2occc2c1
- bioavailability [3]: 131%
- AUC(0-t) at 24 h [4]: 44.4 µg·h/mL
- AUC(0-t) at 24 h [5]: 6.86 µg·h/mL
- clearance [6]: 0.144 L/h/kg
- Vdss [7]: 0.399 L/kg
- Cmax [8]: 6.83 µg/mL
- half-life [9]: 3.45 h

SMILES: CC(C)COc1ccc(-c2cccc(O)c2C(=O)O)cc1C#N
- IC50 [1]: > 10 µM
- IC50 [2]: > 10 µM

SMILES: Cc1cc2cc(C#N)cc(-c3ccc(C(=O)O)c(O)c3)c2o1
- IC50 [1]: 0.623 µM
- IC50 [2]: 0.061 µM

SMILES: N#Cc1cc(-c2ccc(C(=O)O)c(O)c2)c2sccc2c1
- IC50 [1]: 0.444 µM
- IC50 [2]: 0.133 µM

SMILES: N#Cc1cc(-c2ccc(C(=O)O)c(O)c2)c2ccoc2c1
- bioavailability [3]: 99.5%
- AUC(0-t) at 24 h [4]: 43.2 µg·h/mL
- AUC(0-t) at 24 h [5]: 8.53 µg·h/mL
- IC50 [2]: 0.039 µM
- clearance [6]: 0.116 L/h/kg
- Vdss [7]: 0.155 L/kg
- Cmax [8]: 6.55 µg/mL
- half-life [9]: 2.66 h

SMILES: Cc1nc(-c2ccc(OCC(C)C)c(C#N)c2)sc1C(=O)O [FEBUXOSTAT]
- Activity [10]: 6.61 µg·h/mL
- AUC [11]: 478000 ng·h/mL
- inhibition (INH) [12]: Not Active
- Activity [13]: 32.1 µg·h/mL

SMILES: N#Cc1cc2c(c(-c3ccc(C(=O)O)c(O)c3)c1)CCC2
- IC50 [1]: 0.107 µM
- IC50 [2]: 0.56 µM

SMILES: CCc1oc2ccccc2c1C(=O)c1cc(Br)c(O)c(Br)c1 [BENZBROMARONE]
- AUC [14]: 894000 ng·h/mL
- inhibition (INH) [15]: Not Active
- Activity [16]: 42.3%

SMILES: O=C(O)c1ccc(-c2cc(C(F)(F)F)cc3ccoc23)cc1O
- IC50 [1]: 3.19 µM
- IC50 [2]: 0.388 µM

SMILES: COc1cc(-c2cc(C#N)cc3ccoc23)ccc1C(=O)O
- IC50 [1]: 3.75 µM
- IC50 [2]: > 10 µM

SMILES: N#Cc1cc2c(c(-c3ccc(C(=O)O)c(O)c3)c1)OCC2
- IC50 [1]: 0.352 µM
- IC50 [2]: 0.046 µM

SMILES: N#Cc1cc(-c2ccc(C(=O)O)c(O)c2)c2ncsc2c1
- IC50 [1]: 3.64 µM
- IC50 [2]: 0.101 µM

SMILES: N#Cc1cc(-c2ccc(C(=O)O)c(O)c2)c2oc(Cl)cc2c1
- bioavailability [3]: 93.9%
- AUC(0-t) at 24 h [4]: 28.1 µg·h/mL
- IC50 [1]: 0.037 µM
- AUC(0-t) at 24 h [5]: 5.48 µg·h/mL
- clearance [6]: 0.166 L/h/kg
- Vdss [7]: 0.4 L/kg
- Cmax [8]: 3.7 µg/mL
- half-life [9]: 3.05 h

SMILES: N#Cc1cc(-c2ccc(C(=O)O)c(O)c2)c2cc[nH]c2c1
- IC50 [1]: > 10 µM
- IC50 [2]: 0.027 µM

SMILES: N#Cc1cc(-c2ccc(C(=O)O)c(O)c2)c2oc(C(F)(F)F)cc2c1
- IC50 [1]: 0.104 µM
- IC50 [2]: 0.347 µM
